Data published in patent US7396946B2, “Compound for treatment of external secretion disorders” (Sucampo AG, priority 1999, dated 2008).

Legend:
normal rabbits = assay: Effect on whole tear secretion of normal rabbits (Schirmer's test, Test Example 1); format: in vivo, Male Japanese albino rabbits (Std:JW/CSK); conditions: for whole tear secretion: 30 μl/eye single instillation, 8 eyes
Experimental: Male Japanese albino rabbits (Std:JW/CSK) were used.
(2) Method of Administration
Ophthalmic solution comprising 0.001% of 13,14-dihydro-15-keto-16,16-difluoro-PGE1 as an active ingredient of the present invention was prepared and used as a test composition. As a control, the vehicle of said solution without the active ingredient was used.
Each of the compositions was instilled singly to eight eyes at the amount of 30 μl/eye. After the administration, the time course of the tear secretion change was examined according to the following method.
Before (0 hour) and 0.5, 2, 4, and 6 hours after the instillation, the whole tear secretion was determined.
Under no anesthetization, one edge of the Schirmer's test strip (Showa Yakuhin Kako Co., Ltd., Lot No. 70080) was inserted into the conjunctival sac of the each test animal. One minute after, the strip was removed and the length of the moisted part was read from the scale provided on the strip to determine the amount of whole tear secretion.

rats (SD strain) = assay: Exaltation of salivation, salivary weight on paper filter (Test Example 4); format: in vivo, Male rats (SD strain); conditions: 1.0 mg/kg orally once a day for 10 days
Experimental: The effect of the composition of the present invention on salivary secretion was determined. (1) Test Animals Male rats (SD strain) were used. Each of the test and control groups contains 8 animals. (2) Method of Administration 13,14-dihydro-15-keto-16,16-difuloro-PGE1 was used as an active ingredient of the present invention to prepare test solution containing 0.2 mg/ml of the compound. 5 ml/kg of the solution (1.0 mg/kg of the compound) was forcedly administrated orally once a day. For the animals f control group, 5 ml/kg of vehicle without the active ingredient was administrated once a day. The administration was continued for 10 days. (3) Examination The amount of the saliva of the test group and control group was measured one hour after the administration on 10th day. The edge of a paper filter (Schirmer's test strip, Showa Yakuhin Kako Co., Ltd.) was inserted between lower gingiva and mandibula. Three minutes after, the paper filter was removed and the weight of the saliva was calculated by the following formula. weight of saliva=(the weight of paper filter including saliva)−(weight of only paper filter) (4) Result

Question: For `CCCCC(F)(F)C(=O)CCC1C(O)CC(=O)C1CCCCCCC(=O)O` (stereo not drawn) [13,14-dihydro-15-keto-16,16-difluoro-PGE1], which whole tear secretion (normal rabbits; 0.001% ophthalmic solution, 0.5 hr after) is on record?
Answer: 17.0 ± 0.5 mm/min.

Question: And the whole tear secretion (normal rabbits; 0.001% ophthalmic solution, 2 hr after)?
Answer: 14.1 ± 0.5 mm/min.

Question: What about the whole tear secretion (normal rabbits; 0.001% ophthalmic solution, 4 hr after) of the same molecule?
Answer: 11.7 ± 0.6 mm/min.

Question: What about the whole tear secretion (normal rabbits; 0.001% ophthalmic solution, 6 hr after) of the same molecule?
Answer: 10.5 ± 1.0 mm/min.

Question: And the “amount of whole tear secretion (result in words)” value (normal rabbits; 0.001% ophthalmic solution, versus control group)?
Answer: significant increase

Question: What about the “stimulating response, such as rubor in the front of the eye” value (normal rabbits; after instillation of 0.001% ophthalmic solution, 30 μl/eye) of the same molecule?
Answer: No stimulating response

Question: And the whole tear secretion (normal rabbits; test group 0.001% ophthalmic solution, before the administration (baseline))?
Answer: 5.3 ± 0.2 mm/min.

Question: And the “salivary secretion (result in words)” value (rats (SD strain); compared with the control group)?
Answer: significantly increased

Question: And the “Salivary weight (mean ± S.E.)” value (rats (SD strain); one hour after the administration on 10th day, paper filter 3 minutes, 8 animals)?
Answer: 18.1 ± 5.6 mg
